Test results published in patent publication US20240300945A1, “CLY SERIES COMPOUND, PREPARATION METHOD THEREFOR AND USE THEREOF IN PREPARATION OF DRUGS” (NANJING WELLBEST PHARMACEUTICAL CO., LTD, priority 2021, published 2024).

Columns and labels:
[1] = test system: skin melanocytes; test: Chloasma model of guinea pig: pathomorphological observation of skin melanocytes; assay type: in vivo; set-up: Average gray level (melanocyte depth): scale not given here; conditions: 0.25% cream once a day, 30 days
Source text: According to the body weight, they were randomly divided into the model control group (applied cream matrix), blank control group (applied cream matrix), CLY-1 treatment group (applied 0.25% CLY-1 cream on the skin), CLY-2 treatment group (0.25% CLY-2 cream on the skin), CLY-3 treatment group (0.25% CLY-3 cream on the skin), CLY-4 treatment group (0.25% CLY-4 cream on the skin), CLY-5 treatment group (0.25% CLY-5 cream on the skin) CLY-8 treatment group (0.25% CLY-8 cream on the skin), CLY-11 treatment group (0.25% CLY-11 cream on the skin), CLY-19 treatment group (0.25% CLY-19 cream on the skin), CLY-36 treatment group (0.25% CLY-36 cream on the skin), CLY-39 treatment group (0.25% CLY-39 cream on the skin), positive treatment group (0.25% arbutin cream on the skin), 6 in each group. In addition to the blank control group, all guinea pigs in the other groups were injected with 20 mg/ml progesterone injection (7.5 mg/kg) into the muscle at the root of the hind leg, once a day, for 30 consecutive days to establish the chloasma model. […] After modeling, the guinea pigs in the model control group, blank control group, each CLY series treatment group, and positive treatment group were treated with corresponding cream on the back for intervention, once a day, for 30 consecutive days.
Took 1 piece of spare skin tissue from each of all guinea pigs, about 2 cm×1 cm, 10% paraformaldehyde fixation, pathological tissue detection, immunohistochemical staining, observation of melanocyte staining and number, and judgment of positive cells according to the literature: none, 0 point<15%, 0.5 points<30%, 1 point; >30%, 2 points. Observed 5 visual fields in each slice, found out the positive target with brown reaction in the cytoplasm of skin epidermis and accessory epithelial cells, and used BX50F4 Beihang pathological image analysis system for quantitative analysis to obtain the average area, the ratio of target area to statistical field area (areal density), the ratio of target number to statistical field area (number density), the average gray level, the average optical density and the integrated optical density of each guinea pig's 5 visual fields of melanin positive target.
SPSS16.0 software was used for statistics. The measurement data were expressed by mean±standard deviation (x±s). The comparison between multiple groups was performed by one-way ANOVA, and the comparison between groups was performed by t-test. P<0.05 was statistically significant.

[2] = test system: skin hair follicles and sebaceous glands of mice; test: Mouse hair loss model: histopathological grading of skin hair follicles and sebaceous glands; assay type: in vivo, C57BL/6 mice; conditions: external 2% tincture, 60 days, 6 mice per group; for number of mice with hair follicle and sebaceous gland grade +++: grade +++ (most severe); for number of mice with hair follicle and sebaceous gland grade ±: grade ± (lesions limited); for number of mice with hair follicle and sebaceous gland grade −: grade − (normal structure)
Source text: The experimental mice were divided into the negative control group (external use of 60% ethanol), model group (external use of 60% ethanol), positive control group (external use of 2% minoxidil tincture), CLY-1 external treatment group (external use of 2% CLY-1 tincture), CLY-2 external treatment group (external use of 2% CLY-2 tincture), CLY-3 external treatment group (external use of 2% CLY-3 tincture), CLY-4 external treatment group (external use of 2% CLY-4 tincture), CLY-8 external treatment group (external use of 2% CLY-8 tincture) CLY-11 external treatment group (2% CLY-11 tincture), CLY-19 external treatment group (2% CLY-19 tincture), CLY-36 external treatment group (2% CLY-36 tincture), and CLY-39 external treatment group (2% CLY-39 tincture). There were 6 animals in each group, half male and half female. An area of 4 cm×5 cm from the back of experimental mice with hair removed was selected, and the hair removal area was painted yellow with 3% picric acid solution to determine the observation area of the hair removal experiment. In addition to the negative control group, mice in other groups were injected subcutaneously with testosterone propionate injection [8 ml/(kg·d)] at the back of the neck, once a day, for 60 consecutive days, to establish the model of androgenic alopecia (AGA). At the same time of modeling, the rats in the corresponding drug group were smeared with drugs on the observation area of the back at the rate of 1 ml/(piece·time), twice a day, with an interval of 2 hours. The normal control group and the model control group were smeared with the excipient (60% ethanol solution), 1 ml/(one time), twice a day, for 60 consecutive days.
10 hairs were extracted from the observation area on the back of each mouse every 15 days after administration, and the hair length was measured with a vernier caliper. After 60 days of administration, the skin of the experimental observation area was taken for routine tissue dehydration, paraffin embedding, HE staining, and light microscopy to observe the histopathological changes of mouse skin hair follicles and sebaceous glands. Semi-quantitative analysis was performed for each group. The grading criteria are as follows: the normal structure of dermal tissue cells, subcutaneous hair follicles, and sebaceous glands is marked as […]: no hyperplasia of dermal tissue is found, the lesions of hair follicles and sebaceous glands are limited, and no inflammation is found under the skin is marked as “+”: no obvious hyperplasia of dermal tissue is found, and the follicles are obviously cystic. No obvious hyperplasia of sebaceous glands is found, and no inflammation is found under the skin is marked as “+”: the dermal tissue has segmental hyperplasia, which is not obvious, A small number of hair follicles have cystic changes, and the sebaceous glands have mild hyperplasia and hypertrophy. There is no obvious inflammation under the skin, which is marked as “++”: the dermal tissue cells of the skin have different degrees of segmental hyperplasia, and some hair follicles have cystic changes, showing uneven size of hair follicles, and no cells around. The sebaceous glands have hyperplasia, and the nuclei in the proliferative glands are few. A few subcutaneous mild inflammatory hyperplasia is marked as “+++”.

| SMILES | Area density of melanocytes [1] | Area of melanocytes [1] | Average gray level (melanocyte depth) [1] | Average optical density (melanocyte depth) [1] | Integrated optical density (melanocyte depth) [1] | Number density of melanocytes [1] | Number of melanocytes [1] | number of mice with hair follicle and sebaceous gland grade +++ [2] | number of mice with hair follicle and sebaceous gland grade ++ [2] | number of mice with hair follicle and sebaceous gland grade + [2] | number of mice with hair follicle and sebaceous gland grade ± [2] | number of mice with hair follicle and sebaceous gland grade − [2] |
| --- | --- | --- | --- | --- | --- | --- | --- | --- | --- | --- | --- | --- |
| CN1CCC[C@@H](N(C(=O)c2ccc(-n3nnc4cccnc43)cc2)c2ncccc2Cl)C1 [CLY-1, (R)-4-(3H-[1,2,3]triazolo[4,5-b]pyridin-3-yl)-N-(3-chloropyridin-2-yl)-N-(1-methylpiperidin-3-yl)benzamide] | 0.005 ± 0.002 | 372.31 ± 58.32 um2 | 0.43 ± 0.07 | 11.23 ± 1.21 | 103.34 ± 9.71 | 1.91 ± 0.96 | 1.93 ± 0.55 | 0 | 1 | 2 | 3 | 0 |
| CCN1CCC[C@@H](N(C(=O)c2ccc(-n3nnc4cccnc43)cc2)c2ncccc2Cl)C1 [CLY-2, (R)-4-(3H-[1,2,3]triazolo[4,5-b]pyridin-3-yl)-N-(3-chloropyridin-2-yl)-N-(1-ethylpiperidin-3-yl)benzamide] | 0.004 ± 0.002 | 366.26 ± 62.15 um2 | 0.41 ± 0.06 | 10.68 ± 1.18 | 106.96 ± 9.84 | 1.88 ± 1.34 | 1.75 ± 0.53 | 0 | 0 | 2 | 4 | 0 |
| CNC1CCCC(N(C(=O)c2ccc(-n3nnc4cccnc43)cc2)c2ncccc2Cl)C1 (stereo not drawn) [CLY-3] | 0.008 ± 0.003 | 436.32 ± 79.12 um2 | 0.52 ± 0.08 | 11.42 ± 1.32 | 95.36 ± 9.86 | 2.82 ± 1.25 | 2.13 ± 0.61 | 0 | 2 | 1 | 3 | 0 |
| O=C(c1ccc(-n2nnc3cccnc32)cc1)N(c1ncccc1Cl)C1CCCC(O)C1 (stereo not drawn) [CLY-4] | 0.009 ± 0.003 | 496.56 ± 86.23 um2 | 0.58 ± 0.09 | 11.61 ± 1.38 | 92.45 ± 9.36 | 2.95 ± 1.41 | 2.45 ± 0.67 | 0 | 2 | 2 | 2 | 0 |
| COC1CCCC(N(C(=O)c2ccc(-n3nnc4cccnc43)cc2)c2ncccc2Cl)C1 (stereo not drawn) [CLY-5] | 0.004 ± 0.001 | 345.31 ± 56.21 um2 | 0.40 ± 0.05 | 10.59 ± 1.13 | 107.06 ± 9.57 | 1.75 ± 1.29 | 1.43 ± 0.32 |  |  |  |  |  |
| O=C(c1ccc(-n2nnc3cccnc32)cc1)N(c1ncccc1Cl)[C@@H]1CCNC1 [CLY-8, (R)-4-(3H-[1,2,3]triazolo[4,5-b]pyridin-3-yl)-N-(3-chloropyridin-2-yl)-N-(pyrrolidin-3-yl)benzamide] | 0.003 ± 0.001 | 341.26 ± 54.82 um2 | 0.39 ± 0.04 | 10.48 ± 1.11 | 103.15 ± 9.52 | 1.71 ± 1.26 | 1.36 ± 0.29 | 0 | 0 | 2 | 4 | 0 |
| NC1CCCC(N(C(=O)c2ccc(-n3nnc4cccnc43)cc2)c2ncccc2Cl)C1 (stereo not drawn) [CLY-11] | 0.006 ± 0.002 | 417.53 ± 73.16 um2 | 0.46 ± 0.06 | 11.26 ± 1.22 | 101.38 ± 9.92 | 2.16 ± 1.38 | 1.98 ± 0.56 | 0 | 2 | 1 | 3 | 0 |
| O=C(c1ccc(-c2ccccc2-c2nnn[nH]2)cc1)N(c1ncccc1Cl)[C@@H]1CCCNC1 [CLY-19] | 0.006 ± 0.003 | 405.62 ± 73.45 um2 | 0.45 ± 0.06 | 11.28 ± 1.24 | 102.65 ± 9.97 | 2.18 ± 1.35 | 1.95 ± 0.52 | 0 | 1 | 2 | 3 | 0 |
| Nc1cc(N2CCCCC2)nc(N)[n+]1[O-] [Positive control group, minoxidil, reference compound] |  |  |  |  |  |  |  | 0 | 3 | 1 | 2 | 0 |
